How the values were obtained:
[1] = target: T1, human E3 ligase component cereblon (CRBN) (Homo sapiens, UniProt Q96SW2); assay: Cereblon (CRBN) target engagement, NanoBRET TE Intracellular E3 Ligase Assay in transfected HEK-293T cells; details: read-out: CRBN Binding EC50
T1 construct: host or cells: HEK293T
Outline: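 HEK-293T cells transiently co-transfected with NanoLuc-CRBN (N-terminal NanoLuc) and DDB1 were dosed with CRBN tracer and an 11-point compound series (typically 10 μM to 100 pM) for 2 h at 37° C. BRET at 450/610 nm gave IC50 by four-parameter logistic fit.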

IKZF1 (Ikaros) = target: T2, IKZF1 (Ikaros) (Homo sapiens, UniProt Q13422); assay: IKZF1 reporter degradation assay (HEK 293T IKZF1-mNeonGreen reporter cell line); type: cell-based; details: HEK 293T IKZF1-mNeonGreen reporter, 24 hours incubation
T2 construct: mScarlet (behind P2A) (C, cleaved yes); expressed in transfected cells
Outline: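 Degradation is measured as loss of mNeonGreen fused C-terminally to each human IKZF protein in clonal HEK 293T cells, with co-expressed mScarlet as reference. Treatment lasts 24 h at 37 °C. DC50 is derived by logistic fitting of percent positive cells.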

T2 sequence (Q96SW2 whole entry partner): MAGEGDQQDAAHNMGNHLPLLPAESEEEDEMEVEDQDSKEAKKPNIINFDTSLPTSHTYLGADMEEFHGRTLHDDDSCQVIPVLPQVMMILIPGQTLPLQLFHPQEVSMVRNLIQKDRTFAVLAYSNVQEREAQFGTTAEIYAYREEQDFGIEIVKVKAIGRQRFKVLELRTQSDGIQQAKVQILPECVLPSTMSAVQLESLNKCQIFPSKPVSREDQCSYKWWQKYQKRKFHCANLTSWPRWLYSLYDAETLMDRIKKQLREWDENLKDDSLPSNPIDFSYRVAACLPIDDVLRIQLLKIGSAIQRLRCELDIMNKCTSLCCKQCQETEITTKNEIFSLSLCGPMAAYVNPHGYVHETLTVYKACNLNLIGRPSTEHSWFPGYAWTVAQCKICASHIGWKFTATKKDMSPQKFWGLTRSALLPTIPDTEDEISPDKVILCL
T2 sequence (Q16531 whole entry partner): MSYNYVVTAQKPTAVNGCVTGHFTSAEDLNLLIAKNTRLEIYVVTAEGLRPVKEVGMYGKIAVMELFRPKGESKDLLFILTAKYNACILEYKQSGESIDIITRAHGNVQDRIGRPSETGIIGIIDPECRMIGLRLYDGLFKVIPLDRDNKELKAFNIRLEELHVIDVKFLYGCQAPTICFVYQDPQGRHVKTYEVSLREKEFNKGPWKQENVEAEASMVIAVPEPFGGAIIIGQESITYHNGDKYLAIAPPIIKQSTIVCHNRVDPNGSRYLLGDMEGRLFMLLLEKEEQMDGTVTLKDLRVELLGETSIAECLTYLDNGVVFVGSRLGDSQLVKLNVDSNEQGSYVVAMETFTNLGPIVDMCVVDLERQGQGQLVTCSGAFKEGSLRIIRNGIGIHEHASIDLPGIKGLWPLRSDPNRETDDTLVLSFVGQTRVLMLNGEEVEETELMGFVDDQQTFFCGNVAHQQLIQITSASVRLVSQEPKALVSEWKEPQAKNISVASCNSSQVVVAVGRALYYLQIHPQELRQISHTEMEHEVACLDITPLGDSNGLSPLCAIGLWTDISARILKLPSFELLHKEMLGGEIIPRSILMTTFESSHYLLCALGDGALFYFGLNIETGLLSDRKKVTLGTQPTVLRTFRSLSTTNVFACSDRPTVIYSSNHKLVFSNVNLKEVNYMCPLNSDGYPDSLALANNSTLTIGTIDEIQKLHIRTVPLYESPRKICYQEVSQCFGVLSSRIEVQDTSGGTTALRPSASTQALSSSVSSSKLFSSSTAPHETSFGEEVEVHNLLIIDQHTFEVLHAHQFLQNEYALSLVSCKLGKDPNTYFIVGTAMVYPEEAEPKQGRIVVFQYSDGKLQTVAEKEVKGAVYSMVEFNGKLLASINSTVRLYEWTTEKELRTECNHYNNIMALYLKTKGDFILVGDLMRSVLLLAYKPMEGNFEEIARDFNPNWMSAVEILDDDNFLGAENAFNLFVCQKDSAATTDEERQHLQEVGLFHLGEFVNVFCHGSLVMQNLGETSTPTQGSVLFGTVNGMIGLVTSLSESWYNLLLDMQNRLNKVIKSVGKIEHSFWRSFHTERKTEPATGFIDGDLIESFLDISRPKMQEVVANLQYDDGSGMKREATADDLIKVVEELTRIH
T2 sequence (Q13422 whole entry): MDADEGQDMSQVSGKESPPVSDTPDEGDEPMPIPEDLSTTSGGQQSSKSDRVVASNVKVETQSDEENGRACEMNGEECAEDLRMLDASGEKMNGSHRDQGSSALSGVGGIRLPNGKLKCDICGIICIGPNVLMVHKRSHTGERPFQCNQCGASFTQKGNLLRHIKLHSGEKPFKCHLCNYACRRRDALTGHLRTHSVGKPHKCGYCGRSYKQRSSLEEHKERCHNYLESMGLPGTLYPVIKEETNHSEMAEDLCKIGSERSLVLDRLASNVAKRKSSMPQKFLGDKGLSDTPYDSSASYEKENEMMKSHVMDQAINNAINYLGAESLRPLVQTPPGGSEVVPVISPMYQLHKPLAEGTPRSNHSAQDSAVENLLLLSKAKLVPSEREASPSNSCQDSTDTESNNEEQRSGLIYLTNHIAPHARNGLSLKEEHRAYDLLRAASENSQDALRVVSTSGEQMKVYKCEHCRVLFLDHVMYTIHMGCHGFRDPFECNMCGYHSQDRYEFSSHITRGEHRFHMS
T1 sequence (Q96SW2 whole entry): as the sequence (Q96SW2 whole entry partner) above
T1 sequence (Q16531 whole entry partner): as the sequence (Q16531 whole entry partner) above

An EC50 [1] of 67 nM and a DC50 (IKZF1 (Ikaros)) of over 30 µM were found for `CC1(C(=O)N2CCC(C3CN([C@H]4CCCC[C@@H]4Oc4ccc5c(c4)CN(C4CCC(=O)NC4=O)C5=O)C3)CC2)COC1` (stereo partly drawn) [Compound 29-A, 3-(5-(((1S,2S)-2-(3-(1-(3-methyloxetane-3-carbonyl)piperidin-4-yl)azetidin-1-yl)cyclohexyl)oxy)-1-oxoisoindolin-2-yl)piperidine-2,6-dione] in this work.
An EC50 [1] of 14 nM and a DC50 (IKZF1 (Ikaros)) of over 30 µM were found for `O=C1CCC(N2Cc3cc(O[C@H]4CCCC[C@@H]4N4CC(C5CCOCC5F)C4)ccc3C2=O)C(=O)N1` (stereo partly drawn) [Compound 55-A, 3-(5-(((1S,2S)-2-(3-(3-fluorotetrahydro-2H-pyran-4-yl)azetidin-1-yl)cyclohexyl)oxy)-1-oxoisoindolin-2-yl)piperidine-2,6-dione] in this work.
An EC50 [1] of 6 nM and a DC50 (IKZF1 (Ikaros)) of over 30 µM were found for `CC1(C(=O)N2CCC(C3CN([C@H]4CCCC[C@@H]4Oc4ccc5c(c4)CN(C4CCC(=O)NC4=O)C5=O)C3)CC2)CC1` (stereo partly drawn) [Compound 31-A, 3-(5-(((1S,2S)-2-(3-(1-(1-methylcyclopropane-1-carbonyl)piperidin-4-yl)azetidin-1-yl)cyclohexyl)oxy)-1-oxoisoindolin-2-yl)piperidine-2,6-dione] in this work.
An EC50 [1] of 8 nM and a DC50 (IKZF1 (Ikaros)) of over 30 µM were found for `CC1CC1C(=O)N1CCC(C2CN([C@H]3CCCC[C@@H]3Oc3ccc4c(c3)CN(C3CCC(=O)NC3=O)C4=O)C2)CC1` (stereo partly drawn) [Compound 35-A, 3-(5-(((1S,2S)-2-(3-(1-(2-methylcyclopropane-1-carbonyl)piperidin-4-yl)azetidin-1-yl)cyclohexyl)oxy)-1-oxoisoindolin-2-yl)piperidine-2,6-dione] in this work.
An EC50 [1] of 39 nM and a DC50 (IKZF1 (Ikaros)) of over 30 µM were found for `O=C1CCC(N2Cc3cc(O[C@H]4CCCC[C@@H]4N4CC(C5CCOC5)C4)ccc3C2=O)C(=O)N1` (stereo partly drawn) [Compound 14-A, 3-(1-oxo-5-(((1S,2S)-2-(3-(tetrahydrofuran-3-yl)azetidin-1-yl)cyclohexyl)oxy)isoindolin-2-yl)piperidine-2,6-dione] in this work.
An EC50 [1] of 3 nM and a DC50 (IKZF1 (Ikaros)) of over 30 µM were found for `O=C1CCC(N2Cc3cc(O[C@H]4CCCC[C@@H]4N4CC(C5CCN(C(=O)C6(F)CC6)CC5)C4)ccc3C2=O)C(=O)N1` (stereo partly drawn) [Compound 42-A, 3-(5-(((1S,2S)-2-(3-(1-(1-fluorocyclopropane-1-carbonyl)piperidin-4-yl)azetidin-1-yl)cyclohexyl)oxy)-1-oxoisoindolin-2-yl)piperidine-2,6-dione] in this work.
An EC50 [1] of 3 nM and a DC50 (IKZF1 (Ikaros)) of over 30 µM were found for `O=C1CCC(N2Cc3cc(O[C@H]4CCCC[C@@H]4N4CC(C5CCN(S(=O)(=O)C6CCC6)CC5)C4)ccc3C2=O)C(=O)N1` (stereo partly drawn) [Compound 57-A, 3-(5-(((1S,2S)-2-(3-(1-(cyclobutylsulfonyl)piperidin-4-yl)azetidin-1-yl)cyclohexyl)oxy)-1-oxoisoindolin-2-yl)piperidine-2,6-dione] in this work.
An EC50 [1] of 10 nM and a DC50 (IKZF1 (Ikaros)) of over 30 µM were found for `O=C1CCC(N2Cc3cc(O[C@H]4CCCC[C@@H]4N4CC(C5CCN(C(=O)CC6CC6)CC5)C4)ccc3C2=O)C(=O)N1` (stereo partly drawn) [Compound 34-A, 3-(5-(((1S,2S)-2-(3-(1-(2-cyclopropylacetyl)piperidin-4-yl)azetidin-1-yl)cyclohexyl)oxy)-1-oxoisoindolin-2-yl)piperidine-2,6-dione] in this work.
An EC50 [1] of 7 nM and a DC50 (IKZF1 (Ikaros)) of over 30 µM were found for `CC1(C(=O)N2CCC(C3CN([C@H]4CCCC[C@@H]4Oc4ccc5c(c4)CN(C4CCC(=O)NC4=O)C5=O)C3)CC2)CCCC1` (stereo partly drawn) [Compound 33-A, 3-(5-(((1S,2S)-2-(3-(1-(1-methylcyclopentane-1-carbonyl)piperidin-4-yl)azetidin-1-yl)cyclohexyl)oxy)-1-oxoisoindolin-2-yl)piperidine-2,6-dione] in this work.
An EC50 [1] of 3 nM and a DC50 (IKZF1 (Ikaros)) of over 30 µM were found for `O=C1CCC(N2Cc3cc(O[C@H]4CCCC[C@@H]4N4CC(c5ccc6cccnc6c5)C4)ccc3C2=O)C(=O)N1` (stereo partly drawn) [Compound 87-B, 3-(1-oxo-5-(((1S,2S)-2-(3-(quinolin-7-yl)azetidin-1-yl)cyclohexyl)oxy)isoindolin-2-yl)piperidine-2,6-dione] in this work.
An EC50 [1] of 4 nM and a DC50 (IKZF1 (Ikaros)) of over 30 µM were found for `N#CC1(C(=O)N2CCC(C3CN([C@H]4CCCC[C@@H]4Oc4ccc5c(c4)CN(C4CCC(=O)NC4=O)C5=O)C3)CC2)CCC1` (stereo partly drawn) [Compound 30-A, 1-(4-(1-((1S,2S)-2-((2-(2,6-dioxopiperidin-3-yl)-1-oxoisoindolin-5-yl)oxy)cyclohexyl)azetidin-3-yl)piperidine-1-carbonyl)cyclobutane-1-carbonitrile] in this work.
An EC50 [1] of 3 nM and a DC50 (IKZF1 (Ikaros)) of over 30 µM were found for `CC12CC(C(=O)N3CCC(C4CN([C@H]5CCCC[C@@H]5Oc5ccc6c(c5)CN(C5CCC(=O)NC5=O)C6=O)C4)CC3)(C1)C2` (stereo partly drawn) [Compound 28-A, 3-(5-(((1S,2S)-2-(3-(1-(3-methylbicyclo[1.1.1]pentane-1-carbonyl)piperidin-4-yl)azetidin-1-yl)cyclohexyl)oxy)-1-oxoisoindolin-2-yl)piperidine-2,6-dione] in this work.
An EC50 [1] of 5 nM and a DC50 (IKZF1 (Ikaros)) of over 30 µM were found for `O=C1CCC(N2Cc3cc(O[C@H]4CCCC[C@@H]4N4CC(C5CCN(C(=O)C6CC(F)(F)C6)CC5)C4)ccc3C2=O)C(=O)N1` (stereo partly drawn) [Compound 32-A, 3-(5-(((1S,2S)-2-(3-(1-(3,3-difluorocyclobutane-1-carbonyl)piperidin-4-yl)azetidin-1-yl)cyclohexyl)oxy)-1-oxoisoindolin-2-yl)piperidine-2,6-dione] in this work.
An EC50 [1] of 10 nM and a DC50 (IKZF1 (Ikaros)) of at least 30 µM were found for `N#CC1(C(=O)N2CCC(C3CN([C@H]4CCCC[C@@H]4Oc4ccc5c(c4)CN(C4CCC(=O)NC4=O)C5=O)C3)CC2)CC1` (stereo partly drawn) [Compound 27-A, 1-(4-(1-((1S,2S)-2-((2-(2,6-dioxopiperidin-3-yl)-1-oxoisoindolin-5-yl)oxy)cyclohexyl)azetidin-3-yl)piperidine-1-carbonyl)cyclopropane-1-carbonitrile] in this work.

Reference: US20250100996A1, “HETEROCYCLOALKYL AND HETEROARYL COMPOUNDS AND PHARMACEUTICAL COMPOSITIONS THAT MODULATE IKZF2” (Plexium, Inc., priority 2021, published 2025)
